Values joined by “and” are separate entries in the source; they are usually repeats but may differ in a detail not shown here. Equal values may be shown once. Read-outs that look alike come from different tables or passages of the source. Marks after values point to notes of the source that are not given here.
Key:
[1] = cited from earlier work
[2] = Maternal safety, pregnancy and infant outcomes; assay type: in vivo, human
clinical = conditions: female, human, in vivo
[3] = cited from earlier work; remark: listed apart in the source
HIV-1 [4] = assay: Maternal plasma HIV-1 RNA; assay type: in vivo, human; conditions: rilpivirine with combination antiretrovirals
[5] = cited from earlier work; remark: listed apart in the source
[6] = for AUC24 geometric mean (90% CI) ratio: within-subject; for Tmax: mode (range); for Vd/F: Vd/F (apparent volume of distribution); for AUC: one subject on concomitant darunavir/ritonavir
[7] = Stability in stored plasma; assay type: physicochemical; conditions: plasma stored at −70°C
HIV-1 [8] = conditions: cited from earlier work
[9] = system: cytochrome P450 3A4 (CYP 3A4); conditions: cited from earlier work
[10] = cited from earlier work; remark: listed apart in the source
[11] = 25 mg once daily, postpartum, median (range)
[12] = 25 mg once daily, second trimester, median (range)
[13] = 25 mg once daily, third trimester, median (range)
[14] = Second Trimester/Postpartum, n = 15
[15] = Second Trimester/Third Trimester, n = 15
[16] = Third Trimester/Postpartum, n = 28
[17] = female, human, plasma, oral, 25 mg, 25 mg once daily, second trimester, median (range)

**Q.** Which results are given for Cc1cc(/C=C/C#N)cc(C)c1Nc1ccnc(Nc2ccc(C#N)cc2)n1 [Rilpivirine]?
**A.** Coefficient of variation (CV) for AUC ([1]; human, in vivo): 38%; 10th percentile rilpivirine AUC ([1]; non-pregnant adults): 880 ng·h/mL; Number of preterm deliveries ([2]; at 32, 35, and 36 weeks, N of 30): 3 (10%); Gestational age at delivery, median (range) ([2]; in vivo): 38.9 (32.3 – 41.4) weeks; Infant Birth weight, median (range) ([2]; in vivo): 3095 (1570 – 4570) g; Tolerability ([2]; pregnant and postpartum women, 25 mg once daily): well tolerated; Kp (clinical): 0.55; Maternal plasma rilpivirine concentration at delivery, median (range) (clinical): 103.3 (<10 to 273.4) ng/mL; Umbilical cord blood rilpivirine concentration at delivery, median (range) (clinical): 53.78 (<10 to 219.7) ng/mL; Bound to protein [3]: 99.7%; HIV-1 RNA at 2nd trimester, median (range) (HIV-1 [4]): < 40 (<20 – 2770) copies/mL; HIV-1 RNA at 3rd trimester, median (range) (HIV-1 [4]): < 20 (<20 – 48700) copies/mL; HIV-1 RNA at Delivery, median (range) (HIV-1 [4]): < 20 (<16 – 48700) copies/mL; Cord blood to maternal plasma ratio ([5]; one person): 0.74; Reduction in exposure during pregnancy compared to postpartum ([5]; two women, one value each): 30% and 43%; C0 (pre-dose concentration) [6, 11]: 69 (<10 – 285) ng/mL; C24 (24 hour post-dose concentration) [6, 11]: 81 (<10 – 299) ng/mL; Cmin (minimum observed concentration) [6, 11]: 58 (<10 – 200) ng/mL; C0 (pre-dose concentration) [6, 12]: 98(31 – 216) ^‡ ng/mL; C24 (24 hour post-dose concentration) [6, 12]: 63(37 – 225) ^* ng/mL; Cmin (minimum observed concentration) [6, 12]: 65(29 – 178) ng/mL; C0 (pre-dose concentration) [6, 13]: 56(<10 – 210) ng/mL; C24 (24 hour post-dose concentration) [6, 13]: 56(<10 – 181) ^† ng/mL; Cmin (minimum observed concentration) [6, 13]: 51(<10 – 136) ng/mL; Coefficient of variation (CV) for Cmax ([6]; 2nd trimester): 53%; Coefficient of variation (CV) for Cmin ([6]; 2nd trimester): 55%; Coefficient of variation (CV) for AUC ([6]; 2nd trimester, between-subject): 186%; Coefficient of variation (CV) for AUC ([6]; 3rd trimester): 194%; Coefficient of variation (CV) for Cmax ([6]; 3rd trimester): 212%; Coefficient of variation (CV) for Cmin ([6]; 3rd trimester): 154%; Minimum plasma concentration (Cmin), median (range) ([6]; 14 visits with detectable HIV-1 RNA): 30 (<10 – 93) ng/mL and 30 ng/mL; Minimum plasma concentration (Cmin), median (range) ([6]; 62 visits with undetectable HIV-1 RNA): 63 (15 – 199) ng/mL and 63 ng/mL; C0 geometric mean (90% CI) ratio [6, 14]: 0.91 (0.61 – 1.38); C24 geometric mean (90% CI) ratio [6, 14]: 0.70 (0.55 – 0.90); CL/F geometric mean (90% CI) ratio [6, 14]: 1.33 (1.04 – 1.70); Cmax geometric mean (90% CI) ratio [6, 14]: 0.84 (0.69 – 1.02); Cmin geometric mean (90% CI) ratio [6, 14]: 0.88 (0.63 – 1.21); Vd/F geometric mean (90% CI) ratio [6, 14]: 1.50 (0.58 – 3.93); AUC24 geometric mean (90% CI) ratio [6, 14]: 0.77 (0.61 – 0.96); C0 geometric mean (90% CI) ratio [6, 15]: 1.30 (1.06 – 1.60); C24 geometric mean (90% CI) ratio [6, 15]: 1.09 (0.95 – 1.26); CL/F geometric mean (90% CI) ratio [6, 15]: 0.92 (0.81 – 1.05); Cmax geometric mean (90% CI) ratio [6, 15]: 1.13 (0.96 – 1.34); Cmin geometric mean (90% CI) ratio [6, 15]: 1.22(1.02 – 1.45); Vd/F geometric mean (90% CI) ratio [6, 15]: 0.36(0.22 – 0.58); AUC24 geometric mean (90% CI) ratio [6, 15]: 1.09 (0.96 – 1.23); C0 geometric mean (90% CI) ratio [6, 16]: 0.94 (0.59 – 1.50); C24 geometric mean (90% CI) ratio [6, 16]: 0.84 (0.57 – 1.23); CL/F geometric mean (90% CI) ratio [6, 16]: 1.26 (0.97 – 1.64); Cmax geometric mean (90% CI) ratio [6, 16]: 0.83 (0.68 – 1.01); Cmin geometric mean (90% CI) ratio [6, 16]: 1.11 (0.70 – 1.74); Vd/F geometric mean (90% CI) ratio [6, 16]: 1.42 (0.68 – 2.97); AUC24 geometric mean (90% CI) ratio [6, 16]: 0.80 (0.62 – 1.03); concentration at 24 h ([6]; female, human, plasma, oral, 25 mg, C24 (24 hour post-dose concentration), 25 mg once daily, second trimester, median (range)): 63 ng/mL; Cmax ([6]; female, human, plasma, oral, 25 mg, 25 mg once daily, postpartum, median (range)): 134 ng/mL; Cmax [6, 17]: 145 ng/mL; Tmax ([6]; female, human, plasma, oral, 25 mg, 25 mg once daily, postpartum): 4 h; Tmax ([6]; female, human, plasma, oral, 25 mg, 25 mg once daily, third trimester): 2 h; Vd/F [6, 17]: 750 L; Vd/F ([6]; female, human, plasma, oral, 25 mg, 25 mg once daily, third trimester, median (range)): 1210 L; AUC ([6]; human, plasma, oral, 25 mg, second trimester): 12400 ng·h/mL; AUC ([6]; human, plasma, oral, 25 mg, third trimester): 3600 ng·h/mL; Coefficient of variation (CV) for AUC ([6]; postpartum): 60%; Coefficient of variation (CV) for Cmax ([6]; postpartum): 58%; Coefficient of variation (CV) for Cmin ([6]; postpartum): 71%; Women below the AUC0–24 10th percentile target (880 ng*hr/mL) ([6]; postpartum, 3 of 28): 11%; Women with absorption lag (1 hour post-dose concentration less than pre-dose) ([6]; postpartum, 11 of 28): 39%; C24 lower vs. postpartum ([6]; second trimester): 30%; Reduction of AUC compared to postpartum ([6]; second trimester): 23%; Women below the AUC0–24 10th percentile target (880 ng*hr/mL) ([6]; second trimester, 1 of 15): 7%; Women with absorption lag (1 hour post-dose concentration less than pre-dose) ([6]; second trimester, 9 of 18): 50%; C24 lower vs. postpartum ([6]; third trimester): 16%; Reduction of drug exposure (AUC) compared to postpartum ([6]; third trimester): 20%; Women below the AUC0–24 10th percentile target (880 ng*hr/mL) ([6]; third trimester, 2 of 28): 7%; Women with absorption lag (1 hour post-dose concentration less than pre-dose) ([6]; third trimester, 13 of 30): 43%; Stability in plasma [7]: 2 years; median EC50 (HIV-1 [8]): 0.27 ng/mL; median EC90 (HIV-1 [8]): 0.66 ng/mL; protein binding-adjusted EC50 (HIV-1 [8]): 5.0 ng/mL; Substrate of cytochrome P450 3A4 [9]: substrate

**Q.** Which “AUC during pregnancy compared to postpartum” value ([10]; HIV protease inhibitors) does the source give for COC(=O)N[C@H](C(=O)N[C@@H](Cc1ccccc1)[C@@H](O)CN(Cc1ccc(-c2ccccn2)cc1)NC(=O)[C@@H](NC(=O)OC)C(C)(C)C)C(C)(C)C [atazanavir] here?
**A.** significant decreases

**Q.** With CC(C)CN(C[C@@H](O)[C@H](Cc1ccccc1)NC(=O)O[C@H]1CO[C@H]2OCC[C@H]21)S(=O)(=O)c1ccc(N)cc1 [darunavir] as the molecule, how does the “AUC during pregnancy compared to postpartum” value ([10]; HIV protease inhibitors) read?
**A.** significant decreases

**Q.** Which Clearance during pregnancy [10] does the source give for O=C1Nc2ccc(Cl)cc2[C@@](C#CC2CC2)(C(F)(F)F)O1 [efavirenz] here?
**A.** increased

**Q.** Which “Exposure during pregnancy compared to postpartum” value [10] does the source give for Cc1cc(C#N)cc(C)c1Oc1nc(Nc2ccc(C#N)cc2)nc(N)c1Br [etravirine] here?
**A.** increased

**Q.** Which “AUC during pregnancy compared to postpartum” value ([10]; in vivo) does the source give for CC(C)CN(C[C@@H](OP(=O)(O)O)[C@H](Cc1ccccc1)NC(=O)O[C@H]1CCOC1)S(=O)(=O)c1ccc(N)cc1 [fosamprenavir] here?
**A.** significant decreases

**Q.** With CC(C)(C)NC(=O)[C@@H]1CN(Cc2cccnc2)CCN1C[C@@H](O)C[C@@H](Cc1ccccc1)C(=O)N[C@H]1c2ccccc2C[C@H]1O [indinavir] as the molecule, how does the “AUC during pregnancy compared to postpartum” value ([10]; in vivo) read?
**A.** significant decreases

**Q.** Which “AUC during pregnancy compared to postpartum” value ([10]; in vivo) does the source give for Cc1cccc(C)c1OCC(=O)N[C@@H](Cc1ccccc1)[C@@H](O)C[C@H](Cc1ccccc1)NC(=O)[C@H](C(C)C)N1CCCNC1=O [lopinavir] here?
**A.** significant decreases

**Q.** Which “AUC during pregnancy compared to postpartum” value ([10]; HIV protease inhibitors) does the source give for Cc1c(O)cccc1C(=O)N[C@@H](CSc1ccccc1)[C@H](O)CN1C[C@H]2CCCC[C@H]2C[C@H]1C(=O)NC(C)(C)C [nelfinavir] here?
**A.** significant decreases

**Q.** For Cc1ccnc2c1NC(=O)c1cccnc1N2C1CC1 [nevirapine], which “AUC reduced during third trimester compared to postpartum” value ([10]; in vivo) is on record?
**A.** 20%

**Q.** And the “Cmax reduced during third trimester compared to postpartum” value ([10]; in vivo)?
**A.** 20%

**Q.** And the “Cmin reduced during third trimester compared to postpartum” value ([10]; in vivo)?
**A.** 20%

**Q.** With CC(C)(C)NC(=O)[C@@H]1C[C@@H]2CCCC[C@@H]2CN1C[C@@H](O)[C@H](Cc1ccccc1)NC(=O)[C@H](CC(N)=O)NC(=O)c1ccc2ccccc2n1 [saquinavir] as the molecule, how does the “AUC during pregnancy compared to postpartum” value ([10]; in vivo) read?
**A.** significant decreases
